Ends that are not written are not given here.
Experiments:
A. baumannii ATCC19606 [1] = assay: Skin abscess infection mouse model; assay type: in vivo, Acinetobacter baumannii; details: for anti-infective activity (FIG. 4B): 25 μmol L^−1, A. baumannii ATCC19606; for reduction of bacterial load / bacterial counts: mice, single dose 25 μmol L^−1 to infected area, A. baumannii
Description: (§1) FIG. 4. Anti-infective activity and synergistic interactions of encrypted peptides in vivo. (FIG. 4A) Schematic of the skin abscess mouse model used to assess the anti-infective activity of selected encrypted peptides from plasma proteins. […] (FIG. 4C) Mouse weight was monitored throughout the experiment (2 days) to rule out potential toxic effects of the encrypted peptides. (FIG. 4D) Schematic of the neutropenic thigh infection mouse model used to assess the anti-infective activity of selected encrypted peptides from plasma proteins. […] (FIG. 4F) Mouse weight was monitored throughout the experiment (8 days) to rule out potential toxic effects of the encrypted peptides.
(§2) To test whether the peptides retain their antimicrobial activity in a complex living system, their properties in two mouse models were assessed. […] Since these peptides are mostly found in plasma, a relevant skin abscess mouse model was used to test their anti-infective activity (FIG. 4A). Mice were infected with bacterial loads of 10^5 and 10^6 cells in 20 μL of the clinically relevant Gram-negative pathogens P. aeruginosa and A. baumannii, respectively (FIG. 4B). […] In order to validate the synergistic effects obtained in vitro (FIG. 3D and FIG. 9), infected mice were treated with combinations of encrypted peptides (FIG. 4B). […] No damage or deleterious effects exerted by the peptides were detected in the mice in any of our experiments.
(§3) Methods: Skin abscess infection mouse model. A. baumannii ATCC19606 and P. aeruginosa strain PAO1 were used to infect the murine skin. Briefly, bacteria were grown in tryptic soy broth (TSB) medium. Subsequently, cells were washed twice with sterile PBS (pH 7.4, 13,000 rpm for 1 min), and resuspended to a final concentration of 1×10^5 and 1×10^6 CFU/20 μL for A. baumannii and P. aeruginosa, respectively. Female CD-1 mice (six-weeks old) were anesthetized with isoflurane and had their backs shaved and a superficial linear skin abrasion was made with a needle in order to damage the stratum corneum and upper-layer of the epidermis. An aliquot of 20 μL containing the bacterial load in PBS was inoculated over each defined area containing the scratch with a pipette tip. […] Animals were euthanized and the area of scarified skin was excised two- and four-days post-infection, homogenized using a bead beater for 20 minutes (25 Hz), and 10-fold serially diluted for CFU quantification. […] Prior to each injection, mice were anesthetized with isoflurane and monitored (respiratory rate and pedal reflexes). Next, we monitored the formation of the abscess and euthanized the mice. The infected area was excised three-days post-infection, homogenized using a bead beater for 20 min (25 Hz), and 10-fold serially diluted for CFU quantification. […]

A. baumannii ATCC19606 [2] = assay: Neutropenic thigh infection mouse model; assay type: in vivo, Acinetobacter baumannii; details: for anti-infective activity (FIG. 4E): alone, A. baumannii ATCC19606; for decrease of bacterial counts compared to untreated controls: mice, 25 μmol L^−1 intramuscular, three days post-treatment, A. baumannii
Description: as §1
Next, the efficacy of the same encrypted peptides (SCUB1-SKE25 and SCUB3-MLP22) was assessed in monotherapy and in combination therapy in a murine thigh infection model (FIG. 4D). This preclinical model is sensitive, standardized, and widely used for assessing antibiotic translatability^43,44. Briefly, mice were rendered neutropenic by cyclophosphamide treatment prior to intramuscular infection with 10^6 cells mL^−1 of the bacterial pathogens P. aeruginosa and A. baumannii (FIG. 4E). Either a single dose of each encrypted peptide (at 25 μmol L^−1) or their combination (also at 25 μmol L^−1) were delivered to the infected site via intramuscular administration. Three days post-treatment, on average the peptides reduced the bacterial load of P. aeruginosa and A. baumannii by 4 and 2 orders of magnitude, respectively, compared to untreated mice.
as §3, with “epidermis.” for “epidermis. An aliquot of 20 μL containing the bacterial load in PBS was inoculated over each defined area containing the scratch with a pipette tip.”

[3] = tested on: Gram-negative gut commensals (A. muciniphila and Bacteroidetes species); assay: Antibacterial assay against Gram-negative gut commensals; assay type: cell-based
Description: The 13 most abundant members of the human gut microbiota^15 were exposed to increasing concentrations of the peptides. Species from four different phyla were used to determine susceptibility to the encrypted peptides: Akkermansia muciniphila (Verrucomicrobia); Bacteroides fragilis, Bacteroides thetaiotaomicron, Bacteroides vulgatus, Bacteroides uniformis, Bacteroides eggerthi, Parabacteroidetes distasonis, and Prevotella copri (Bacteroidetes); Collinsella aerofaciens (Actinobacteria); and Clostridium scindens and Clostridium spiroforme (Firmicutes).
Methods: Bacterial strains and media. […] Minimum inhibitory concentrations (MICs) of peptides were determined using the broth microdilution technique in LB, NB and supplemented BHI with an initial inoculum of 5×10^6 cells in nontreated polystyrene microtiter plates (Corning, USA). […]

P. aeruginosa PAO1 = assay: Skin abscess infection mouse model; assay type: in vivo, Pseudomonas aeruginosa; details: for anti-infective activity (FIG. 4B): 25 μmol L^−1, P. aeruginosa PAO1; for reduction of bacterial load / bacterial counts: mice, single dose 25 μmol L^−1 to infected area, P. aeruginosa
Description: as §1, §2, §3

| Sequence | anti-infective activity (FIG. 4B) (A. baumannii ATCC19606 [1]) | reduction of bacterial load / bacterial counts (A. baumannii ATCC19606 [1]) | anti-infective activity (FIG. 4E) (A. baumannii ATCC19606 [2]) | decrease of bacterial counts compared to untreated controls (A. baumannii ATCC19606 [2]) | activity against Gram-negative gut commensals [3] | anti-infective activity (FIG. 4B) (P. aeruginosa PAO1) | reduction of bacterial load / bacterial counts (P. aeruginosa PAO1) |
| --- | --- | --- | --- | --- | --- | --- | --- |
| MLPKSFIKLLRSKVSSFLRPYK [SCUB3-MLP22] | inhibitory activity | 3 orders of magnitude | reduced infections | 3 orders of magnitude | potent activity | inhibitory activity | 3 orders of magnitude |
| SKEMFPRSFIKLLRSKVSRFLRPYK [SCUB1-SKE25] | inhibitory activity | 3 orders of magnitude | reduced infections | 3 orders of magnitude | potent activity | inhibitory activity | 3 orders of magnitude |
